{
  "source": "paper PMC9147975",
  "about": "“New Antibacterial Chloro-Containing Polyketides from the Alga-Derived Fungus Asteromyces cruciatus KMM 4696” (Journal of Fungi, 2022)",
  "key": {"[1]": {"system": "Staphylococcus aureus ATCC 21027", "experiment": "Antimicrobial activity, bacterial growth (OD620)", "assay_type": "cell-based", "conditions": "for inhibition at 100 µM: read-out: inhibition of S. aureus growth; for change of antimicrobial activity on decrease of concentration: decrease of concentration from 100 μM (two-fold for compound 6)", "procedure": "The antibacterial activity of compounds 1–6 was evaluated as described previously. The bacterial culture of Staphylococcus aureus ATCC 21027 (Collection of Marine Microorganisms PIBOC FEBRAS) was cultured in a Petri dish at 37 °C for 24 h on solid medium Mueller Hinton broth with agar—16.0 g/L. The assays were performed in 96-well microplates in appropriate Mueller Hinton broth. Each well contained 90 µL of bacterial suspension (10^9 CFU/mL). Then, 10 µL diluted at concentrations from 1.5 µM to 100.0 µM using two-fold dilution was added to compounds 1–6 (DMSO concentration < 1%). Culture plates were incubated overnight at 37 °C, and the OD620 was measured using a Multiskan Spectrum spectrophotometer (Thermo Labsystems Inc., Beverly, MA, USA). Gentamicin was used as a positive control in concentration 1 mg/mL; 1% DMSO solution in PBS as a negative."}, "[2]": {"biological_target": "T1, sortase A from Staphylococcus aureus (Staphylococcus aureus, UniProt Q2FV99)", "T1 construct": "purchased AnaSpec AS-72229", "T1 sequence (Q2FV99 whole entry)": "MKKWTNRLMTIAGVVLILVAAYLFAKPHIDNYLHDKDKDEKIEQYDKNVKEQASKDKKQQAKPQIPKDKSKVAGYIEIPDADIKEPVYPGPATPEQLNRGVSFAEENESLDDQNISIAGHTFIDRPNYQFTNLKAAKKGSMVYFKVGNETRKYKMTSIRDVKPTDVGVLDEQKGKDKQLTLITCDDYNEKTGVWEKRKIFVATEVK", "experiment": "Sortase activity inhibition assay (SensoLyte 520 Sortase A Activity Assay Kit)", "assay_type": "biochemical", "conditions": "50 μM; for effect on sortase A enzymatic activity (in words) / decrease of sortase A activity: after 10 min of incubation with the substrate", "procedure": "The enzymatic activity of sortase A from Staphylococcus aureus was determined using SensoLyte 520 Sortase A Activity Assay Kit * Fluorimetric * (AnaSpec AS-72229, AnaSpec, San Jose, CA, USA) in accordance with the manufacturer’s instructions. […] DMSO at a concentration of 0.8% was used as a control. PCMB (4-(hydroxymercuri)benzoic acid) was used as sortase A enzyme activity inhibitor. Fluorescence was measured with a plate reader PHERAStar FS (BMG Labtech, Offenburg, Germany) for 60 min, with a time interval of 5 min. The data were processed with MARS Data Analysis v. 3.01R2 (BMG Labtech, Offenburg, Germany). The results were presented as relative fluorescent units (RFUs) and percentage of the control data, calculated using STATISTICA 10.0 software."}, "[3]": {"system": "human keratinocytes HaCaT co-cultivated with S. aureus", "experiment": "Co-cultivation of HaCaT cells with S. aureus, LDH release", "assay_type": "cell-based", "conditions": "10 μM, 48 h co-cultivation", "procedure": "Co-cultivation of HaCaT cells with S. aureus was carried out as described. HaCaT cells at a concentration of 1.5×10^4 cells per well were seeded in 96-well plates for 24 h. Then, culture medium in each well was changed with S. aureus suspension (10^2 CFU/mL) in full DMEM medium. Fresh DMEM medium without S. aureus suspension was added in other wells as needed. Compounds 1–6 at a concentration of 10 μM were added in wells after 1 h. HaCaT cells and S. aureus were cultured at 37 °C in a humidified atmosphere with 5% (v/v) CO2 for 48 h. After incubation, the plate was centrifuged at 250× g for 10 min and 50 µL of supernatant from each well was transferred into the corresponding wells of an optically clear 96-well plate. An equal volume of the reaction mixture (50 µL) from LDH Cytotoxicity Assay Kit (Abcam, Cambridge, UK) was added to each well and incubated for up to 30 min at room temperature. The absorbance of all samples was measured at λ = 450 nm using a Multiskan FC microplate photometer (Thermo Scientific, Waltham, MA, USA) and expressed in optical units (o.u.)."}, "[4]": {"system": "biofilm formation of Staphylococcus aureus", "experiment": "Biofilm formation, crystal violet biofilm assay", "assay_type": "cell-based", "conditions": "for inhibition at 100 µM: Staphylococcus aureus; for formation of biofilms (in words): 100 μM", "procedure": "The inhibition of the reducing biofilm formation and growth was assessed using the crystal violet biofilm assay as described. Mueller Hinton broth was inoculated with 10^9 CFU/mL of S. aureus overnight cultures. A total of 90 µL of this cell suspension was then dispensed into 96-well microtiter plates containing 10 µL of different concentrations of compounds 1–6. After 24 h growth at 37 °C the plates were washed with PBS to remove unbound cells. Next, the wells were stained with 0.1% crystal violet solution for 10 min at 37 °C. At the completion of the incubation, plates were washed 3 times with PBS and dried. Then, the crystal violet dye from the biofilm was solubilized with 100 µL of ethanol. A total of 100 µL of this solution was then moved to a new microtiter plate for absorbance measurement at λ = 570 nm. The results were reported as percent inhibition normalized to the wild-type control."}, "[5]": {"system": "human keratinocytes HaCaT co-cultivated with S. aureus", "design": "method as in PMID 34677452", "conditions": "cited from earlier work"}, "[6]": {"system": "Staphylococcus aureus ATCC 21027", "design": "method as in PMID 34677452", "conditions": "cited from earlier work"}, "[7]": {"biological_target": "T1, sortase A from Staphylococcus aureus", "conditions": "cited from earlier work"}, "[8]": {"system": "biofilm formation of Staphylococcus aureus", "design": "method as in PMID 34677452", "conditions": "cited from earlier work"}, "[9]": {"conditions": "Staphylococcus aureus, ATCC21027, 100 μM"}},
  "note": "Entries after “also recorded” stand apart in the source; their conditions may differ.",
  "data": [
    {"molecule": "C=C(C)C#C[C@@H]1C[C@H](O)[C@H](Cl)[C@@H](O)[C@H]1O", "note": "(relative stereo) [Compound 2, Acrucipentyn B]", "values": [
      {"measurement": "inhibition at 100 µM", "setting": "[1]; [9]", "result": "≤ 50", "unit": "%"},
      {"measurement": "effect on sortase A enzymatic activity (in words)", "setting": "[2]", "result": "inactive; also recorded: did not have any effect"},
      {"measurement": "effect on LDH release (in words)", "setting": "[3]", "result": "greatest effect; also recorded: significant activity"},
      {"measurement": "effect on biofilm formation, comparison in words", "setting": "[4]", "result": "did not show a significant effect"},
      {"measurement": "inhibition at 100 µM", "setting": "[4]", "result": 30, "unit": "%"}
    ]},
    {"molecule": "C=C(C)C#C[C@@H]1C[C@H](O)[C@H](O)[C@@H](Cl)[C@@H]1O", "note": "(relative stereo) [Compound 3, Acrucipentyn C]", "values": [
      {"measurement": "inhibition at 100 µM", "setting": "[1]; [9]", "result": 50, "unit": "%"},
      {"measurement": "change of antimicrobial activity on decrease of concentration", "setting": "[1]", "result": "two-fold decrease in activity"},
      {"measurement": "time-dependent inhibitory effect on sortase A activity", "setting": "[2]; 60 min data acquisition", "result": "detected throughout the entire period of data acquisition"},
      {"measurement": "decrease of sortase A activity", "setting": "[2]", "result": 30, "unit": "%"},
      {"measurement": "concentration down to which a high level of inhibition of biofilm formation is kept", "setting": "[4]", "result": 12.5, "unit": "µM"},
      {"measurement": "formation of biofilms (in words)", "setting": "[4]", "result": "almost absent"}
    ]},
    {"molecule": "C=C(C)C#CC1=C[C@@H](O)[C@@H](Cl)[C@H](O)[C@@H]1O", "note": "(relative stereo) [Compound 4, Acrucipentyn D]", "values": [
      {"measurement": "inhibition at 100 µM", "setting": "[1]; [9]", "result": "≤ 50", "unit": "%"},
      {"measurement": "effect on sortase A enzymatic activity (in words)", "setting": "[2]", "result": "less significant effects"},
      {"measurement": "effect on LDH release (in words)", "setting": "[3]", "result": "greatest effect; also recorded: significant activity"},
      {"measurement": "formation of biofilms (in words)", "setting": "[4]", "result": "almost absent"},
      {"measurement": "change of effect on biofilm formation when diluted twice", "setting": "[4]; diluted twice from 100 μM", "result": "halved"}
    ]},
    {"molecule": "C=C(C)C#CC1=C[C@@H](O)[C@H](O)[C@@H](Cl)[C@@H]1O", "note": "(relative stereo) [Compound 5, Acrucipentyn E]", "values": [
      {"measurement": "inhibition at 100 µM", "setting": "[1]; [9]", "result": "≤ 50", "unit": "%"},
      {"measurement": "decrease of sortase A activity", "setting": "[2]", "result": 21, "unit": "%"},
      {"measurement": "effect on LDH release (in words)", "setting": "[3]", "result": "greatest effect"},
      {"measurement": "effect on biofilm formation, comparison in words", "setting": "[4]", "result": "weaker inhibitory effect"},
      {"measurement": "inhibition at 100 µM", "setting": "[4]", "result": 30, "unit": "%"}
    ]},
    {"molecule": "C=C(C)C#CC1=C[C@@H](O)[C@@H]2O[C@@H]2[C@@H]1O", "note": "(relative stereo) [Compound 6, Acrucipentyn F]", "values": [
      {"measurement": "antimicrobial effect against S. aureus, ranking in words", "setting": "[1]", "result": "most pronounced antimicrobial effects"},
      {"measurement": "inhibition of S. aureus growth (in words)", "setting": "[1]; 100 μM", "result": "almost completely inhibited"},
      {"measurement": "change of antimicrobial activity on decrease of concentration", "setting": "[1]", "result": "halved"},
      {"measurement": "effect on sortase A enzymatic activity (in words)", "setting": "[2]", "result": "less significant effects"},
      {"measurement": "concentration down to which a high level of inhibition of biofilm formation is kept", "setting": "[4]", "result": 25, "unit": "µM"},
      {"measurement": "formation of biofilms (in words)", "setting": "[4]", "result": "almost absent"}
    ]},
    {"molecule": "C=C(C)C#C[C@@H]1C[C@@H](O)[C@@H](Cl)[C@H](O)[C@@H]1O", "note": "[Compound 1, Acrucipentyn A]", "values": [
      {"measurement": "antimicrobial effect against S. aureus, ranking in words", "setting": "[1]", "result": "most pronounced antimicrobial effects"},
      {"measurement": "inhibition at 12.5 µM", "setting": "[1]; Staphylococcus aureus, ATCC21027, 12.5 μM, read-out: antimicrobial activity (inhibition of S. aureus growth)", "result": "≤ 50", "unit": "%"},
      {"measurement": "inhibition at 100 µM", "setting": "[1]; [9]", "result": 60, "unit": "%"},
      {"measurement": "decrease of sortase A activity", "setting": "[2]", "result": 18, "unit": "%"},
      {"measurement": "effect on LDH release (in words)", "setting": "[3]", "result": "greatest effect"},
      {"measurement": "inhibition of biofilm formation", "setting": "[4]; concentrations of 12.5–100 μM, respectively", "result": "50–70%"}
    ]},
    {"molecule": "flavuside B", "values": [
      {"measurement": "protection of HaCaT keratinocytes in co-culture model (in words)", "setting": "[5]", "result": "protect HaCaT keratinocytes against S. aureus infection"},
      {"measurement": "S. aureus growth (in words)", "setting": "[6]", "result": "able to inhibit"},
      {"measurement": "sortase A enzymatic activity (in words)", "setting": "[7]", "result": "inhibitor of sortase A enzymatic activity"},
      {"measurement": "S. aureus biofilm formation (in words)", "setting": "[8]", "result": "able to inhibit"}
    ]}
  ]
}
